Data taken from US20230285372A1, “Pharmaceutical use of (E)-3-arylheterocyclylprop-2-enoic acid derivatives” (MEDCURIUS INC., priority 2020, published 2023).

Assays:
Nrf2 = Nrf2 protein level in the nucleus of HT-22 cells, Western Blot; type: cell-based, mouse; settings: 1.25 μM and 0.625 μM, 24 hours, vs control group
Excerpt: (§1) As a transcription factor, Nrf2 needs to enter the nucleus and combine with ARE sequence to play a role in transcriptional activation. Therefore, Nrf2 protein level in the nucleus is an important prerequisite for the activation of Nrf2 signaling pathway. NQO-1 and HO-1 are target genes regulated by Nrf2, and the increase of their protein levels is an important sign of activation of the Nrf2 signaling pathway.
(§2) HT-22 cells in logarithmic growth phase were selected, the culture medium was discarded, the cells were digested with 0.25% Trypsin containing EDTA, and cell suspension was made. Cell density was adjusted to 50000/ml with DMEM/F12 medium (containing 10% FBS and 1% double antibody) and it was inoculated to 6-well plate, with 2000 μL/well, the number of cells per well was 100, 000, and the cells were cultured in a cell incubator at 37° C. in an atmosphere containing 5% CO2 for 24 hours. Then, the medium of each well was replaced with new 1980 μL DMEM/F12 medium. […] After 24 hours, the cells were collected, nuclear protein and cytoplasmic protein were extracted, and the level of Nrf2 in the nucleus and the expression of NQO-1 and HO-1 in cytoplasm were detected by Western Blot.

NQO-1 = NQO-1 expression in HT-22 cytoplasm, Western Blot; type: cell-based, mouse; settings: HT-22 cells, 1.25 μM, 24 hours, vs control group
Excerpt: as §1, §2

[1] = tested on: MPTP-induced Parkinson's disease mouse; experiment: Rotarod test, MPTP-induced Parkinson's disease mouse; type: in vivo; settings: vs model group
Experimental: (§3) Male C57 mouse were screened for their motor function by a mouse rod-rotating test, and unqualified ones were excluded from the test. […] MPTP was injected subcutaneously every 4 days in the model group and the drug administration group with a dosage of 25 mg/kg for 40 consecutive days. Each group of I-5 was administered once a day at 8:00 am and 8:00 pm (by intragastric administration), twice in total. […] The intragastric volume was 0.1 ml/10 g body weight, and the behavior test was started 40 days later. […] The storage time of the prepared liquid medicine was not more than 24 hours.
On the first day, the mouse acclimated to a rotating speed of 5 rpm for two times, each time for 5 minutes. On the second day, the rotarod turned at a speed of 10 rpm, the mouse acclimated to the speed for two times, each time for 5 minutes. On the third day, the rotarod turned at a speed of 15 rpm, the mouse acclimated to the speed for two times, each time for 3 minutes. On the fourth day, a behavioral test was started. The rotarod turned at a speed of 15 rpm for a period of 3 minutes. The time mouse spent on the rotarod (fall latency) was taken as an index for evaluation of their motor coordination. The test was repeated three times for each animal, with an interval of 30 minutes to eliminate the interference of exercise fatigue on the motion ability of animals.

p-synuclein = experiment: Phosphorylated α-synuclein (p-synuclein) level in midbrain, Western blot, MPTP mouse; type: in vivo; settings: vs model group
Excerpt: The core pathological change of Parkinson's disease is the loss of dopaminergic neurons. Tyrosine hydroxylase (TH), the rate-limiting enzyme in dopamine synthesis, is the landmark protein of the dopaminergic neurons. Therefore, the decrease in its level indicates the loss of the dopaminergic neurons. A key protein for the occurrence and development of Parkinson's disease is α-synuclein protein, and the abnormal modification (hyperphosphorylation) of this protein can inhibit microtubule polymerization, enhance oxidative stress, and thus accelerate the death of the dopaminergic neurons.
as §3
Tissues from all the animals were collected on the second day after the end of the behavioral experiment. Hearts from six animals in each group were perfused and fixed with paraformaldehyde for pathological analysis of paraffin sections. Brain tissue of the remaining animals was separated on ice, and brain areas (midbrain) related to Parkinson's disease were collected. After being frozen with liquid nitrogen, they were stored in a refrigerator at −80° C. for protein analysis. The level of tyrosine hydroxylase (TH), a marker protein of dopaminergic neurons, was detected by immumohistochemistry, and α-synuclein protein level and phosphorylation level of the protein were detected by Western blot.

N#C/C=C/c1ccccn1 [Compound I-5]
protein level of Nrf2 in the nucleus (Nrf2): significantly higher than that of the control group
protein level of NQO-1 (NQO-1): increased significantly
fall latency in the Rotarod test ([1]; 5 mg/kg bid intragastric, p>0.05): no significant difference
fall latency in the Rotarod test ([1]; medium and high dosage groups (10 and 20 mg/kg bid), p<0.0001): significantly prolonged
p-synuclein protein level in the midbrain (p-synuclein; I-5 10 mg/kg, p<0.01): significantly lower than that in the model group
p-synuclein protein level in the midbrain (p-synuclein; I-5 20 mg/kg, p<0.05): significantly lower than that in the model group
